Assays:
[1] = test system: PDX from CNS metastasis (spine) of lung adenocarcinoma; assay: Tumor volume of patient-derived xenograft (lung adenocarcinoma spine metastasis) in NSG mice under treatment (FIG. 7, FIG. 8); assay type: in vivo; conditions: for tumor growth (tumor volume) during treatment: PDX in NSG mice, daily oral gavage for 18 days, SAHA 100 mg/kg, PD0325901 20 mg/kg, vs vehicle
Description: (§1) Immediately after surgical removal, fresh tissue was collected for heterotopic (flank) injection into NSG mice (NOD scid gamma mice—or mice that are on a NOD/ShiLtJ background with severe combined immune deficiency mutation and the IL2 receptor gamma chain deficiency). Excised patient tissue was placed in a culture dish with medium and minced into small pieces, such that minced tissue suspensions could be drawn through a 16-gauge needle. Minced tissues were placed in a conical tube, media was withdrawn, and matrigel was added to the wet tissue in a 1:1 volume ratio. Approximately 200 μl of the matrigel-tissue mixture was injected subcutaneously into the flanks of two to four mice, and tumors were allowed to develop until the tumors achieved a length of 1.0 to 2.0 cm in the longest dimension. Mice were then sacrificed by CO2 asphyxiation, and their flank tumors were immediately excised. Portions of each excised flank tumor were archived as frozen tissue and as paraffin-embedded tissue following formalin fixation. The remainder of each tumor was dispersed in DMEM, processed as described above and passed by injection into the flank of another NSG mouse.
In view of these changes in the patient's molecular profile, a treatment model was created. […] For example, in view of the G12C mutation in the KRAS gene and the additional amplification this same gene found in the subject's exome, a MEK inhibitor (i.e., a pharmaceutical that targets the mitogen-activated kinase kinase enzymes MEK1 and MEK2) was selected. In this experiment, the MEK inhibitor selected was PD0325901. In addition, the detection of the HDAC9 amplification drove the selection of a drug that has been previously shown efficacy of epigenetic therapy in metastatic lung cancer, suberanilohydroxamic acid or SAHA, which is a potent HDAC inhibitor.
After establishing which treatments were to be used in the case study, 15 animals comprising the PDX were divided into three groups. A first group received vehicle only via intraperitoneal injection each day for 18 days. A second group received SAHA (100 mg/kg) via oral gavage each day for 18 days and a third group received PD0325901 (20 mg/kg) each day for 18 days via oral gavage. Both during and after treatment, tumor volume was measured in each of the mice and the data is plotted in FIG. 7.
Additional experiments were conducted to investigate the potential impact of combination drugs. Referring now to FIG. 8, the drug treatment experiments described above were repeated with an additional pharmaceutical composition, 5-Azacytidine, which is a nucleoside analog that is an FDA-approved treatment for some forms of cancer. […]

[2] = test system: patient-derived xenograft of lung cancer metastasized to the central nervous system (KRAS mutation); assay: Tumor weight of patient-derived xenograft of lung cancer CNS metastasis (FIG. 13); assay type: in vivo, mice; conditions: treatment conditions with MEK inhibitor
Description: as §1, with “Portions of each excised flank tumor were archived as frozen tissue and as paraffin-embedded tissue following formalin fixation. The remainder of each tumor was dispersed in DMEM, processed as described above and passed by injection into the flank of another NSG mouse.” left out
(§2) Referring next to FIGS. 12 and 13, samples from a different patient (i.e., a patient with lung cancer that metastasized to portions the central nervous system) that were analyzed using some aspects of the instant invention. […] As a result of this analysis, it was determined that a MEK inhibitor (e.g., PD0325901) should be employed in the patient-derived xenograft context to assess potential for therapeutic efficacy.

[3] = have been shown; cited from earlier work
ERK phosphorylation = assay: Immunohistochemistry with anti-phosphorylated ERK antibody (FIG. 14); assay type: in vivo
Experimental: FIG. 14 is an immunohistochemistry study of tissue from the patient whose samples were detailed in FIGS. 12 and 13. In this study, an anti-phosphorylated ERK antibody was used to assess ERK phosphorylation in the various treatment conditions.
Sections were mounted onto a glass slide and stained with reagents designed to detect proteins of interest by IHC staining. This allows samples of many or all of the tumor specimens to be stained at one time. IHC staining was performed to determine the presence or absence of specific proteins and was used to validate potential targets discovered by genome-wide experiments (as previously described).
as §2

Nc1ncn([C@@H]2O[C@H](CO)[C@@H](O)[C@H]2O)c(=O)n1 [5-Azacytidine]
tumor volume growth, single agent and combinations with 5-Azacytidine ([1]; 5-Azacytidine 2.0 mg/kg intraperitoneal, combinations compared to SAHA and PD0325901 alone, FIG. 8): did not serve as an efficacious treatment

O=C(NOC[C@H](O)CO)c1ccc(F)c(F)c1Nc1ccc(I)cc1F [PD0325901]
gains in tumor weight [2]: most reduced gains in tumor weight
blood-brain barrier penetration [3]: blood-brain barrier penetrant
ERK phosphorylation 14 days after treatment (ERK phosphorylation; 14 days after treatment): returned to vehicle-treatment levels
ERK phosphorylation in the metastasis cells during treatment (ERK phosphorylation; compared to vehicle alone): reduced ERK phosphorylation
tumor growth (tumor volume) during treatment ([1]; FIG. 7): little to no tumor growth
rate of tumor growth after treatment stopped ([1]; after day 18, FIG. 7): reduced compared to animals in the SAHA and control groups

O=C(CCCCCCC(=O)Nc1ccccc1)NO [SAHA, suberanilohydroxamic acid]
blood-brain barrier penetration [3]: blood-brain barrier penetrant
tumor growth (tumor volume) during treatment ([1]; FIG. 7): reduced tumor growth

— patent US10525148B2, “Systems and methods for preclinical models of metastases” (The Translational Genomics Research Institute, priority 2014, dated 2020)
